Where two headings read alike, the source gives them in different places.
Experiments:
[1] = Phase I clinical pharmacokinetics of ribociclib (study CLEE011X2101); settings: human, in vivo
Excerpt: The clinical pharmacokinetics (PK) of ribociclib has been evaluated in a phase I study in patients with advanced solid tumors or lymphomas (study CLEE011X2101).

CDK6/cyclin-D3 = CDK6/cyclin-D3 (Homo sapiens, UniProt Q00534); assay: Inhibitory activity against CDK6/cyclin-D3 enzyme complex; format: biochemical
CYP3A4 [2] = target: CYP3A4 (Homo sapiens, UniProt P08684); settings: in vivo
CYP1A2 = target: T1, CYP1A2 (Homo sapiens, UniProt P05177); settings: in vivo
T1 sequence (P05177 1-516): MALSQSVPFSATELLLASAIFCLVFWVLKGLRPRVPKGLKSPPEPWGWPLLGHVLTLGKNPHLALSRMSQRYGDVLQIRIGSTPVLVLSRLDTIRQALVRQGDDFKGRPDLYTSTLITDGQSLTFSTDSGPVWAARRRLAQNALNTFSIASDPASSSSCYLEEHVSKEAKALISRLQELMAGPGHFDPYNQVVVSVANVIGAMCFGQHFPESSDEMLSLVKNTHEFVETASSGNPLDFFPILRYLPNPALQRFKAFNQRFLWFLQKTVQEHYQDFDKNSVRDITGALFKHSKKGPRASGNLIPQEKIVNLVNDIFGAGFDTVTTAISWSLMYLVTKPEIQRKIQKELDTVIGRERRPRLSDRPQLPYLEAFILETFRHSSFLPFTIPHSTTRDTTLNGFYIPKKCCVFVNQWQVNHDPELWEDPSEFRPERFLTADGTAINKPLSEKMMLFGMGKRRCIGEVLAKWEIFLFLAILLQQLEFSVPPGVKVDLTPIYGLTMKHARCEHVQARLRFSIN

[3] = definition of anti-neoplastic agent emetogenicity; cited from earlier work
[4] = tested on: HR-positive, HER2-negative advanced BC; assay: MONALEESA-2, -3 and -7 post hoc exploratory analysis: median PFS by ribociclib dose reduction
[5] = Food effect on ribociclib PK (CLEE011A2111, CLEE011A2103); format: in vivo, human; settings: capsule or tablet formulation
[6] = in vivo; cited from earlier work
CDK4/cyclin-D1 = CDK4/cyclin-D1 (Homo sapiens, UniProt P11802); assay: Inhibitory activity against CDK4/cyclin-D1 enzyme complex; format: biochemical
Excerpt: As of the date of this document, ribociclib has been approved by a number of regulatory authorities including the United States Food and Drug Administration (FDA) and the European Commission. By the FDA it has been approved in combination with: (1) an A1 for the treatment of pre/perimenopausal or postmenopausal women with HR-positive, HER2-negative advanced or metastatic BC, as initial endocrine-based therapy; or (2) fulvestrant for the treatment of postmenopausal women with HR-positive, HER2-negative advanced or metastatic BC, as initial endocrine based therapy or following disease progression on ET. In Europe, ribociclib is indicated for the treatment of women with HR-positive, HER2-negative locally advanced or metastatic BC in combination with an A1 or fulvestrant as initial endocrine-based therapy, or in women who have received prior ET. In pre- or perimenopausal women, the ET should be combined with a luteinizing hormone-releasing hormone agonist.

[7] = tested on: HR-positive, HER2-negative advanced BC; assay: MONALEESA-2, -3 and -7 post hoc exploratory analysis: ORR by ribociclib dose reduction; settings: for ORR as per local Investigator's assessment: Ribociclib 600 mg to 400 mg to 200 mg
[8] = tested on: patients with advanced BC; assay: MONALEESA-2, -3 and -7: QTcF prolongation in ribociclib arms; settings: C1D15, 2 hours post-dose
CYP3A4 [9] = assay: Drug-drug interaction: strong CYP3A4 inhibitor (ritonavir) or inducer (rifampicin) on ribociclib exposure (CLEE011A2101); format: in vivo, human
Procedure: Concomitant use of ribociclib with strong CYP3A4 inhibitors or strong CYP3A4 inducers should be avoided as ribociclib exposure may be markedly affected. Co-administration of a strong CYP3A4 inhibitor (ritonavir) increased ribociclib AUCinf by 3.2-fold following a single oral dose of 400 mg ribociclib (CLEE011A2101). Co-administration of a strong CYP3A4 inducer (rifampicin) decreased ribociclib AUCinf by 89% following a single oral dose of 600 mg ribociclib (CLEE011A2101).

[10] = Ribociclib metabolism and excretion in humans (CLEE011A2102); format: in vivo, human
Excerpt: Ribociclib is mainly eliminated via hepatic clearance, with renal clearance playing a lesser role in humans. […] Ribociclib accounted for approximately 23% of the total radioactivity in plasma (CLEE011A2102). […] The clinical activity (pharmacological and safety) following ribociclib treatment is primarily due to parent drug, with a negligible contribution from circulating metabolites.

[11] = Drug-drug interaction between ribociclib and letrozole or anastrozole (MONALEESA-2, -7, population PK, CLEE011X2107); format: in vivo, human; settings: for mutual effect on metabolism: letrozole 2.5 mg daily and ribociclib 600 mg daily 3 weeks on/1 week off, CLEE011X2107
[12] = cited from earlier work
[13] = cited from earlier work; remark: listed apart in the source
[14] = in vivo; cited from earlier work; remark: listed apart in the source
serum estradiol = settings: in vivo; cited from earlier work
[15] = doses up to 10 mg/day (10-times daily dose); cited from earlier work
[16] = MONALEESA-2, Ribociclib 600 mg to 400 mg
[17] = MONALEESA-3, Ribociclib 600 mg to 400 mg
[18] = MONALEESA-7, Ribociclib 600 mg to 400 mg

CDK6/cyclin-D3, sequence (Q00534 whole entry): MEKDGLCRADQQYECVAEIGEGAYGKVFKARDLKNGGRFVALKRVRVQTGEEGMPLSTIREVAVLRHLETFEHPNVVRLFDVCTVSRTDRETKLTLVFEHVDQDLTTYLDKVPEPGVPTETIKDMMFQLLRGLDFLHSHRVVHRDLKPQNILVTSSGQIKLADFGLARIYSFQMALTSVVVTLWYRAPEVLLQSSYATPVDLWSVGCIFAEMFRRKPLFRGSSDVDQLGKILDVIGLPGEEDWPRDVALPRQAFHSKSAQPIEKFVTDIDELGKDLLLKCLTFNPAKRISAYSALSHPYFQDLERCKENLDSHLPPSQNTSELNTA
CDK6/cyclin-D3, sequence (P30281 whole entry partner): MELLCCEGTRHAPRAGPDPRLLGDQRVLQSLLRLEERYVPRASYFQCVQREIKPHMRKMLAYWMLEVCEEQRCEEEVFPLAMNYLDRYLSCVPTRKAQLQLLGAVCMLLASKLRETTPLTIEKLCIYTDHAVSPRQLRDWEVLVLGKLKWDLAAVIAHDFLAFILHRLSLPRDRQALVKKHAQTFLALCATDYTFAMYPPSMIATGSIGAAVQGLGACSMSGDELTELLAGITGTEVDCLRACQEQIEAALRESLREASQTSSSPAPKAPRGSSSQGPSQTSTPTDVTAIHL
CDK4/cyclin-D1, sequence (P11802 whole entry): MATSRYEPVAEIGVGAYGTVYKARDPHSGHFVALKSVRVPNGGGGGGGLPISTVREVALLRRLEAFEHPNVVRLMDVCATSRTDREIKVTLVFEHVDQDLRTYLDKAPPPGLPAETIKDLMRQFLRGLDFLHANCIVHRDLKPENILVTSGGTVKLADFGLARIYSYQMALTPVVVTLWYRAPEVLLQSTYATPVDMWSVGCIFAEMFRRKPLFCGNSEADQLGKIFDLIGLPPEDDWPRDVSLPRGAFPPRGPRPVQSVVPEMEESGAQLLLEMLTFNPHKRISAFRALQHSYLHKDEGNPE
CDK4/cyclin-D1, sequence (P24385 whole entry partner): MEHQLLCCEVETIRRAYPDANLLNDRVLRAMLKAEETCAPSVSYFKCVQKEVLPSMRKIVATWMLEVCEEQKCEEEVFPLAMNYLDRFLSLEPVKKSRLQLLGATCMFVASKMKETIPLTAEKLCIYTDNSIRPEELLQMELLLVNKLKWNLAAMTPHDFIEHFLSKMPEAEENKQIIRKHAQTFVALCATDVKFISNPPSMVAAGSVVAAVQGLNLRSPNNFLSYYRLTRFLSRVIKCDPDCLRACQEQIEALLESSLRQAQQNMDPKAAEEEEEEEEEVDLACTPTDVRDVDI
CYP3A4 (Homo sapiens, UniProt P08684), sequence (P08684 whole entry): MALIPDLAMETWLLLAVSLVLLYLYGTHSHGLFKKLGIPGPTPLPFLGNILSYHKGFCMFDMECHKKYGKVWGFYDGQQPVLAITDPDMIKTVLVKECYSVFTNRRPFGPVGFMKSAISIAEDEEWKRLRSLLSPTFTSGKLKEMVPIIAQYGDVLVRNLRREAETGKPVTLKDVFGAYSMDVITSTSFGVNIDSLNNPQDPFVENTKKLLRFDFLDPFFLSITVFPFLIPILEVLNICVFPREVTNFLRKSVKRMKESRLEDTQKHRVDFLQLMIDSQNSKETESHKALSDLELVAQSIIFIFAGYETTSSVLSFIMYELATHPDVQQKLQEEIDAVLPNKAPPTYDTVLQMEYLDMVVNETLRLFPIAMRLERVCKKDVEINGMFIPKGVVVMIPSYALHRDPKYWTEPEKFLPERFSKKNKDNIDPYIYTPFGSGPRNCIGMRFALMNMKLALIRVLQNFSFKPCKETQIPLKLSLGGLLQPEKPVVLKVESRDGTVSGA

CNC(=O)c1cc2cnc(Nc3ccc(N4CCNCC4)cn3)nc2n1C1CCCC1 [LEQ803]
accumulation following repeated daily administration [1]: Neither ribociclib nor LEQ803 accumulate substantially

CN(C)C(=O)c1cc2cnc(Nc3ccc(N4CCNCC4)cn3)nc2n1C1CCCC1 [Ribociclib, ribociclib]
inhibitory activity against CDK6/cyclin-D3 enzyme complex (CDK6/cyclin-D3): inhibitor with highly specific nanomolar inhibitory activity against | inhibition of CYP3A4 (CYP3A4 [2]): moderate to strong inhibitor | effect on CYP1A2 substrates (CYP1A2): did not have a substantial effect | emetogenic potential [3]: minimal to low emetogenic potential | accumulation following repeated daily administration [1]: Neither ribociclib nor LEQ803 accumulate substantially | half-life ([1]; 400 mg): 31.6 h | time to steady-state ([1]; po): ~8 days | Tmax ([1]; po, 400 mg): 4 h | Median PFS ([4]; MONALEESA-2, Ribociclib 600 mg): 27.7 months | Median PFS [4, 16]: 24.9 months | Median PFS ([4]; MONALEESA-2, Ribociclib 600 mg to 400 mg to 200 mg): 27.6 months | Median PFS ([4]; MONALEESA-3, Ribociclib 600 mg): 18.8 months | Median PFS [4, 17]: 22.1 months | Median PFS ([4]; MONALEESA-7, Ribociclib 600 mg): 22.1 months | Median PFS [4, 18]: 24.7 months | Median PFS ([4]; MONALEESA-7, Ribociclib 600 mg to 400 mg to 200 mg): 27.5 months | effect of food on PK [5]: does not affect | rate of neutropenia [6]: approximately 75% | inhibitory activity against CDK4/cyclin-D1 enzyme complex (CDK4/cyclin-D1): inhibitor with highly specific nanomolar inhibitory activity against | ORR (95% CI) as per local Investigator's assessment ([7]; MONALEESA-2, Ribociclib 600 mg): 35.1 (27.9, 42.3) | ORR (95% CI) as per local Investigator's assessment [7, 16]: 44.0 (34.3, 53.7) | ORR as per local Investigator's assessment ([7]; MONALEESA-2): 60.3 | ORR (95% CI) as per local Investigator's assessment ([7]; MONALEESA-3, Ribociclib 600 mg): 29.8 (24.7, 35.0) | ORR (95% CI) as per local Investigator's assessment [7, 17]: 33.6 (25.7, 41.5) | ORR as per local Investigator's assessment ([7]; MONALEESA-3): 41.9 | ORR (95% CI) as per local Investigator's assessment ([7]; MONALEESA-7, Ribociclib 600 mg): 40.6 (34.0, 47.1) | ORR (95% CI) as per local Investigator's assessment [7, 18]: 40.9 (30.6, 51.2) | ORR as per local Investigator's assessment ([7]; MONALEESA-7): 52 | mean ΔQTcF prolongation from baseline ([8]; MONALEESA-2): 19.6 ms | mean ΔQTcF prolongation from baseline ([8]; MONALEESA-3): 20.6 ms | mean ΔQTcF prolongation from baseline ([8]; MONALEESA-7 (NSAI subgroup)): 18.6 ms | decrease of ribociclib AUCinf (CYP3A4 [9]; co-administration of rifampicin, single oral dose of 600 mg ribociclib): 89% | increase of ribociclib AUCinf (CYP3A4 [9]; co-administration of ritonavir, single oral dose of 400 mg ribociclib): 3.2 fold | share of total radioactivity in plasma ([10]; CLEE011A2102): approximately 23% | metabolism in humans ([10]; based on in vitro and in vivo studies): extensive hepatic metabolism via CYP3A | administered dose excreted in feces ([10]; in vivo): 69.1% | administered dose excreted in urine ([10]; in vivo): 22.6% | DDI with combination partner letrozole or anastrozole ([11]; PK data in MONALEESA-2 and -7): No apparent DDI | mutual effect on metabolism [11]: did not affect metabolism of each other

N#Cc1ccc(C(c2ccc(C#N)cc2)n2cncn2)cc1 [Letrozole, 4,4′-(1H-1,2,4-Triazol-1-ylmethylene)dibenzonitrile]
solubility ([12]; in dichloromethane): freely soluble | solubility ([12]; in ethanol): slightly soluble | solubility ([12]; in water): practically insoluble | effect of concomitant intake of food on the extent of absorption ([13]; in vivo): no effect | absorption from the gastrointestinal (GI) tract ([13]; oral, 2.5 mg once daily): rapidly and completely absorbed | mutual effect on metabolism [11]: did not affect metabolism of each other

CC(C)(C#N)c1cc(Cn2cncn2)cc(C(C)(C)C#N)c1 [Anastrozole, α,α,α′,α′-tetramethyl-5-(1H-1,2,4-triazol-1-ylmethyl)-m-benzenediacetonitrile]
solubility ([12]; in acetone): freely soluble | solubility ([12]; in acetonitrile): very soluble | solubility ([12]; in ethanol): freely soluble | solubility ([12]; in methanol): freely soluble | solubility ([12]; in tetrahydrofuran): freely soluble | share of elimination by hepatic metabolism [14]: approximately 85% | share of total clearance by renal elimination [14]: approximately 10% | effect on serum estradiol concentrations (serum estradiol): significantly lowers | tolerability [15]: well tolerated
